The values that follow come from ChEMBL document CHEMBL1141467, “Multi-target-directed ligands to combat neurodegenerative diseases” (J Med Chem, 2008).

In data set [1] the target is Sodium-dependent serotonin transporter (Homo sapiens, UniProt P31645).
A short description of data set [2]: Inhibition of metal-induced amyloid beta aggregation at 50 uM.
Data set [3] deals with T1, Acetylcholinesterase (Homo sapiens, UniProt P22303).
Description: Inhibition of human AchE-induced amyloid beta aggregation
Data set [4] addresses T1, Acetylcholinesterase. The source holds these as a separate data set.
Data set [5] in a line: Protection against ROS induced by oxidative stress at 10 uM in neuronal cells. The format is functional.
In data set [6] the target is T2, Amine oxidase [flavin-containing] B (Homo sapiens, UniProt P27338).
T2 sequence (P27338 whole entry): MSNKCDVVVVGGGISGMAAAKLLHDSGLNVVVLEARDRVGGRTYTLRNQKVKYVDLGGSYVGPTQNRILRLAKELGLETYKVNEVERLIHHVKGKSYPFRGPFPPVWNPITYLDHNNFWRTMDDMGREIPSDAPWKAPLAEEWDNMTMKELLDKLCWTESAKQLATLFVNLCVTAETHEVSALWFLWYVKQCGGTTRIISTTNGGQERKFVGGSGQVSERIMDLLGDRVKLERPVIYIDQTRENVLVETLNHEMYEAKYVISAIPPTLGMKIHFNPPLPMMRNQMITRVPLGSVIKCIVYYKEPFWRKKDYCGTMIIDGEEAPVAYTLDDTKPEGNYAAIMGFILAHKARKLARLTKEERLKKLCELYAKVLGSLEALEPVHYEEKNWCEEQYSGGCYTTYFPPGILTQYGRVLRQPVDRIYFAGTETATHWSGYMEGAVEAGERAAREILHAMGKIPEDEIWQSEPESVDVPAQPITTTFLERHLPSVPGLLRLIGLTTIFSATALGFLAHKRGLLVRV

Data set [7] addresses T3, Amine oxidase [flavin-containing] A (Homo sapiens, UniProt P21397).
T3 sequence (P21397 whole entry): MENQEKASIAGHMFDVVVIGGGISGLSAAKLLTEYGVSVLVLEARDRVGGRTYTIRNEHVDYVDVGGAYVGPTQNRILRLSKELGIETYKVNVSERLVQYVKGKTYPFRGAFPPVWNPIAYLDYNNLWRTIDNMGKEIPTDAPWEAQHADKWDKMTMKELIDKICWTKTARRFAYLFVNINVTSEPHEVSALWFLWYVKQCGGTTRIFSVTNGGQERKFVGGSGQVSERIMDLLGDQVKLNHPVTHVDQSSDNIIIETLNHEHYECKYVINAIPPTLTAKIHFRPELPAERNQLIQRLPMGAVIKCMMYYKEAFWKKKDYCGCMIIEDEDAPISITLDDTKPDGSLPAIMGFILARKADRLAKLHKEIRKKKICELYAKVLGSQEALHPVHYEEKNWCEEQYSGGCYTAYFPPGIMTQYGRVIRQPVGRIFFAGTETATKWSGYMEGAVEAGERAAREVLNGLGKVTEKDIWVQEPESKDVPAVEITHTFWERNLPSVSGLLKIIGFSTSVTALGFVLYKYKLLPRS

In data set [8] the target is T4, Muscarinic acetylcholine receptor M2 (Homo sapiens) (UniProt P08172).
T4 sequence (whole entry): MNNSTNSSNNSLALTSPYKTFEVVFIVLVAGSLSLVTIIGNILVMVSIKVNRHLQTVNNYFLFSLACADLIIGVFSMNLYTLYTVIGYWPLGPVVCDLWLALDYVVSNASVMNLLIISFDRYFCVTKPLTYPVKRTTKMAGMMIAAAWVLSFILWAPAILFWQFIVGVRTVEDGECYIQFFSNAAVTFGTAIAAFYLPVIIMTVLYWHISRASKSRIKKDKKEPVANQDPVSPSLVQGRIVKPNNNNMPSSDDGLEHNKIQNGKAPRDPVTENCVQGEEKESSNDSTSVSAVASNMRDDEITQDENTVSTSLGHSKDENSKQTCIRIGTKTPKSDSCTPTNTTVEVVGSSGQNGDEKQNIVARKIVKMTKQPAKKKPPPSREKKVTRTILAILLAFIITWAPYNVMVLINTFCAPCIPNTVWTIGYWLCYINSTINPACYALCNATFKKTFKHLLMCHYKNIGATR
Description: Antagonist activity at muscarinic M2 receptor. Type of data set: functional.

Data set [9] in a line: Inhibition of amyloid beta aggregation at 100 uM. More on the design: scale not given: the % may be the effect or the level left.
A further data set is filed under the species Homo sapiens. In words: Selectivity for human Ach over human BuCh.
Data set [10] can be described thus: Inhibition of zinc-induced amyloid beta aggregation at 25 uM.
The target in data set [11] is T5, 5-hydroxytryptamine receptor 3A (Homo sapiens, UniProt P46098).
T5 sequence (P46098 whole entry): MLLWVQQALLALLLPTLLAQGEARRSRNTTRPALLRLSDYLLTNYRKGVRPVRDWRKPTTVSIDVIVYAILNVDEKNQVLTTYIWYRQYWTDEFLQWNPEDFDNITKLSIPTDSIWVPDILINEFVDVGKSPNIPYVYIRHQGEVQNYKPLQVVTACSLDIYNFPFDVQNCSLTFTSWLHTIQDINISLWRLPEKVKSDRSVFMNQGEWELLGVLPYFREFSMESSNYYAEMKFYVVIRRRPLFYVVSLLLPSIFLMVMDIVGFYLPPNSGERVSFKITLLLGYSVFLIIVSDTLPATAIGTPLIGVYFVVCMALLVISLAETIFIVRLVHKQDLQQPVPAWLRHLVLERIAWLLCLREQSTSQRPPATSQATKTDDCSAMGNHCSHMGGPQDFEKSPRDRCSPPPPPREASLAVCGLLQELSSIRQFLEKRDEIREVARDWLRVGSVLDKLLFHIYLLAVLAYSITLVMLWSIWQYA
Description: Binding affinity to 5HT3 receptor

The target of data set [12] is T6, 5-hydroxytryptamine receptor 1A (Homo sapiens, UniProt P08908).
T6 sequence (P08908 whole entry): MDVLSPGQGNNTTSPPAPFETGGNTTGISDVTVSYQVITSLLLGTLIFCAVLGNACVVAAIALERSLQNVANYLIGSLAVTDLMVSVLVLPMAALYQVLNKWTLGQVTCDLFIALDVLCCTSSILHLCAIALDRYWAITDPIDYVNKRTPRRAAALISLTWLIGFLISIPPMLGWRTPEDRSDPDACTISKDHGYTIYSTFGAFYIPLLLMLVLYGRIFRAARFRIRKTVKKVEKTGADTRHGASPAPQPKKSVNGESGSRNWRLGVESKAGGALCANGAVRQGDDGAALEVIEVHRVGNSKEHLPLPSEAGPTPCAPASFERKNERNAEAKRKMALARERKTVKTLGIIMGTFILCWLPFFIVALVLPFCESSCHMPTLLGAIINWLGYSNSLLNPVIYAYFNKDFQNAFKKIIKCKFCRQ
Description: Binding affinity to human 5HT1A receptor.

In another data set the target is T7, D(4) dopamine receptor (Homo sapiens, UniProt P21917).
T7 sequence (P21917 whole entry): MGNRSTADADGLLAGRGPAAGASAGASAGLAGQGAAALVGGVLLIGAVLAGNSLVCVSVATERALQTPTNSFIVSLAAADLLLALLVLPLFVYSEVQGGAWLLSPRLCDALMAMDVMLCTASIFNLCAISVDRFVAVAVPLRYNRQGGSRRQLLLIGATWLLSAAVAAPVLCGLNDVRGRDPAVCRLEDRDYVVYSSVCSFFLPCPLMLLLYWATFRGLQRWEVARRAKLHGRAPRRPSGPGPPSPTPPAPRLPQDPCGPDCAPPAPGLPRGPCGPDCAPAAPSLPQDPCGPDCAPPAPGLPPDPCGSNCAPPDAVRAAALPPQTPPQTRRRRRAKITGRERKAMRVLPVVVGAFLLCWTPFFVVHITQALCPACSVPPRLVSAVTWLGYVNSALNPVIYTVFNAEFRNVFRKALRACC
In words: Binding affinity to human dopaminergic D4 receptor.

For the next data set, the target named is D(3) dopamine receptor (Homo sapiens, UniProt P35462). Description: Binding affinity to human dopaminergic D3 receptor.
D(3) dopamine receptor, sequence (P35462 whole entry): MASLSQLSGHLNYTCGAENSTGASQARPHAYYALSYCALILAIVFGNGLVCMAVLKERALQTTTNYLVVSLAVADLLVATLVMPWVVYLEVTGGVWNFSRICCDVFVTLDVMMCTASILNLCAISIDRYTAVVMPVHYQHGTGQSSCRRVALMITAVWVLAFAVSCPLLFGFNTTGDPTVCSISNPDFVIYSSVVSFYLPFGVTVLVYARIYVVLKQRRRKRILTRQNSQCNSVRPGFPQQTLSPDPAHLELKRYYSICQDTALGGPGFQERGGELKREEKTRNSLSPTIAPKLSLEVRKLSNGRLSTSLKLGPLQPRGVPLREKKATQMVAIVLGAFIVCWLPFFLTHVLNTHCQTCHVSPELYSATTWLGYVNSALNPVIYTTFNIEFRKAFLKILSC
The target in a further data set is D(2) dopamine receptor (Homo sapiens, UniProt P14416). In words: Binding affinity to human dopaminergic D2 receptor.
D(2) dopamine receptor, sequence (P14416 whole entry): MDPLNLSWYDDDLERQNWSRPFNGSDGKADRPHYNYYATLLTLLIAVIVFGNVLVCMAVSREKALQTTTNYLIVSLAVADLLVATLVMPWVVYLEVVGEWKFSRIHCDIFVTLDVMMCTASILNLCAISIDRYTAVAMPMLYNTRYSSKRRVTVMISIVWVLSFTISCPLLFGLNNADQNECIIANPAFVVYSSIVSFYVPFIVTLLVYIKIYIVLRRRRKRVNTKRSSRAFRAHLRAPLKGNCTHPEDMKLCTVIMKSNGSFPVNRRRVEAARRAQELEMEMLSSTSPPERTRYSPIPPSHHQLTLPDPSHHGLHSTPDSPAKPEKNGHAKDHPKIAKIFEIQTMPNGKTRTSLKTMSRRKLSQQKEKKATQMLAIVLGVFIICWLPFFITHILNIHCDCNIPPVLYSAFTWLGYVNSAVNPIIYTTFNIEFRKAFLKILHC
A further data set deals with Beta-secretase 1 (Homo sapiens, UniProt P56817). Description: Inhibition of BACE1.
Beta-secretase 1, sequence (P56817 whole entry): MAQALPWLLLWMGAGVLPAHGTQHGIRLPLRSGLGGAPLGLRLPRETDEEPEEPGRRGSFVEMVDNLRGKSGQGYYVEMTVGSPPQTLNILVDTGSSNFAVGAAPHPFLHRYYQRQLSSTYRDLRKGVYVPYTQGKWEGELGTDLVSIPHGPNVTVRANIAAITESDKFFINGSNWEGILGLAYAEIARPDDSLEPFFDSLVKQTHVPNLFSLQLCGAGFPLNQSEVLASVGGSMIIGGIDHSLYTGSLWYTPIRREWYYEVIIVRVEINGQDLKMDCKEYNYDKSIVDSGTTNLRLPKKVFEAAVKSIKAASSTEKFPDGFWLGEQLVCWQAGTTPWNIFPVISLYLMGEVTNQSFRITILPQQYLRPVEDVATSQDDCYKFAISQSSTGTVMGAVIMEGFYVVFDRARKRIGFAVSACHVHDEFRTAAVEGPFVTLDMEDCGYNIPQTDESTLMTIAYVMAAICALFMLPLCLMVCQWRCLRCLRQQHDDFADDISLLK
For data set [13], the target named is T1, Acetylcholinesterase. In words: Inhibition of human AchE induced amyloid beta42 aggregation.
Substrate in data set [14]: CCN(CCCCCCNC1=CC(=O)C(NCCCCCCN(CC)Cc2ccccc2OC)=CC1=O)Cc1ccccc1OC
Description: Binding affinity to NQQ1.

T1 sequence (P22303 whole entry): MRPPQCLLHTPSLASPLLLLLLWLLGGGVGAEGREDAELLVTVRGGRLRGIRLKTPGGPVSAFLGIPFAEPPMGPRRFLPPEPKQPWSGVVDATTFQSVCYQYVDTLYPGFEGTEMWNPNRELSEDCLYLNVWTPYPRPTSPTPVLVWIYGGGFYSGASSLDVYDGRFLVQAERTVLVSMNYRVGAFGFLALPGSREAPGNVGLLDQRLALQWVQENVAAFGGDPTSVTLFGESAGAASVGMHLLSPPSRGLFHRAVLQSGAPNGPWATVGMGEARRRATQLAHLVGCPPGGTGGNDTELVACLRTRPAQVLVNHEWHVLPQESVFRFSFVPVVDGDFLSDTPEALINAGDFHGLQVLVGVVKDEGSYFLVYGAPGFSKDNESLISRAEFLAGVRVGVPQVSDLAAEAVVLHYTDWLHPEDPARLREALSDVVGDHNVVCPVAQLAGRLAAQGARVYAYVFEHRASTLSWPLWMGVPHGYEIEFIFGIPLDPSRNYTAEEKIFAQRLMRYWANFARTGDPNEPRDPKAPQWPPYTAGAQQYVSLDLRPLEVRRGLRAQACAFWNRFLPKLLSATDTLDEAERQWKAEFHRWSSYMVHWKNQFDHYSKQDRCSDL
Sodium-dependent serotonin transporter, sequence (P31645 whole entry): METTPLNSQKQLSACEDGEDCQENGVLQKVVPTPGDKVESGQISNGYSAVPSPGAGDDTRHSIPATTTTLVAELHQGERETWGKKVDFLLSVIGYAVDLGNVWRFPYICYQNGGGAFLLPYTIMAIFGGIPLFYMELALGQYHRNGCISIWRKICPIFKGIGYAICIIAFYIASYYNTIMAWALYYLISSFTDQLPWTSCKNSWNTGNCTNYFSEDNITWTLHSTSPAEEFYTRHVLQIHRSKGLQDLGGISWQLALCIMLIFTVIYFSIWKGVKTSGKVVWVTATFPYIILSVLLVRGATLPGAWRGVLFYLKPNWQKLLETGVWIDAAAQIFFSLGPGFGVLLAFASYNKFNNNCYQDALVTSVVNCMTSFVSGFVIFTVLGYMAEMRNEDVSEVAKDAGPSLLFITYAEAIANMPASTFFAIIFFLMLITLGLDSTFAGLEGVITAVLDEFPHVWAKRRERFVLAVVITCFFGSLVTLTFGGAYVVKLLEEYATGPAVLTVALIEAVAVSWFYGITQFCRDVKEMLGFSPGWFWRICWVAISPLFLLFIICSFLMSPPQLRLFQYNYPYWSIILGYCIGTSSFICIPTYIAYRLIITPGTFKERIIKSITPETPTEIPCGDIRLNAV

As for `CCN(C)C(=O)Oc1cccc([C@H](C)N(C)C)c1` [RIVASTIGMINE], the IC50 in data set [1] was > 1000 nM.
With `CN(CCN(C)Cc1cc(O[C@@H]2O[C@H](CO)[C@@H](O)[C@H](O)[C@H]2O)cc(C(C)(C)C)c1O)Cc1cc(O[C@H]2O[C@@H](CO)[C@H](O)[C@@H](O)[C@@H]2O)cc(C(C)(C)C)c1O`, the IC50 in [2] is recorded as > 50%.
As for `O=C(CCCCC1CCSS1)NCCCNc1c2c(nc3cc(Cl)ccc13)CCCC2` (stereo not given) [LIPOCRINE], the IC50 at Acetylcholinesterase [3] was found to be 45000 nM; at Acetylcholinesterase [4], 0.25 nM. In data set [5], this molecule had an Activity of 62%.
On to `C#CCN1CCN(Cc2ccnc3c(O)cccc23)CC1`, for which the figures for the IC50 in [6] and in data set [7] were 64200 nM and 300000 nM, respectively.
Turning to `CCN(CCCCCC(=O)N1CCC(C2CCN(C(=O)CCCCCN(CC)Cc3ccccc3OC)CC2)CC1)Cc1ccccc1OC`, the Kb in [8] is 660 nM.
Turning to `C#CCNCc1ccnc2c(O)cccc12`, the IC50 in data set [6] worked out at 4240 nM; in [7], 2390 nM.
Molecule `Clc1cccc(Cl)c1CO/N=C/c1cc[n+](CCCc2ccccc2)cc1` gave an Activity in data set [9] of 60%. The same molecule displayed an IC50 against Acetylcholinesterase [4] of 180 nM.
Turning to `O=C(CCc1c[nH]c2ccccc12)NCCCCCCCNc1c2c(nc3cc(Cl)ccc13)CCCC2`, the IC50 turned out to be 9000 nM against Acetylcholinesterase [3] and 0.06 nM against Acetylcholinesterase [4]. In data set [9], this molecule came in with an Activity of 65%.
Take `Cc1c(O[C@@H]2O[C@H](CO)[C@@H](O)[C@H](O)[C@H]2O)c(=O)ccn1C`: the Activity in [2] is > 50%.
`COc1ccccc1CNCCCNCCCNCCC[n+]1c(-c2ccccc2)c2cc(N)ccc2c2ccc(N)cc21`: the IC50 at Acetylcholinesterase [4] turned out to be 952 nM.
As to `Clc1cccc(Cl)c1CO/N=C/c1cc[n+](CCC[n+]2ccc(/C=N/OCc3c(Cl)cccc3Cl)cc2)cc1`, in [9], the Activity is 55%. On Acetylcholinesterase [4], the IC50 came out at 6000 nM.
For `O=C(CCCCCCNc1c2c(nc3cc(Cl)cc(Cl)c13)CCCC2)NCCc1c[nH]c2ccccc12`, the Selectivity ratio in the data set filed under Homo sapiens came to 1000.
Take `O=C(O)CN(CCN(CC(=O)O)CC(=O)Nc1ccc(-c2nc3ccccc3s2)cc1)CCN(CC(=O)O)CC(=O)Nc1ccc(-c2nc3ccccc3s2)cc1`: in data set [10], the IC50 is recorded as > 50%.
`C#CCN[C@@H]1CCc2cc(Cl)c(OC(=O)N(C)CCC)cc21`: the values for the IC50 (in data set [6]; on Acetylcholinesterase [4]; in data set [7]) were 32000 nM, 43900 nM and 375000 nM, respectively.
As for `Cc1c(N2CCN(C)CC2)nc2ccccc2c1C(=O)NCCCCCCCNc1c2c(nc3ccccc13)CCCC2`, the affinity in [11] corresponds to a Ki of 5.6 nM.
With `COc1ccccc1CN(C)CCCCCC(=O)N(C)CCCCCCCCN(C)C(=O)CCCCCN(C)Cc1ccccc1OC`, in data set [8], the Kb was 410 nM.
Molecule `c1ccc2c(NCCc3ccc(OCCCN4CCCCC4)cc3)c3c(nc2c1)CCCC3` registered an IC50 on Acetylcholinesterase [4] of 2.6 nM. This molecule had a Ki in data set [11] of 0.33 nM.
As for `C#CCN(C)Cc1ccnc2c(O)cccc12`, the figures for the IC50 in [6] and in [7] were 57 nM and 37 nM, respectively.
On to `O=C(CCc1c[nH]c2ccccc12)NCCCCCCNc1c2c(nc3cc(Cl)ccc13)CCCC2`, for which the IC50 in data set [9] was 2000 nM; against Acetylcholinesterase [4] it was 0.02 nM.
For `Fc1ccc(-c2cncc(CNC[C@H]3CCc4ccccc4O3)c2)cc1` [SARIZOTAN], the IC50 (in data set [12]; on D(4) dopamine receptor; on D(3) dopamine receptor; at D(2) dopamine receptor; in [11]) was < 6 nM each time.
With `CCN(CCCCCCNC1=CC(=O)C(NCCCCCCN(CC)Cc2ccccc2OC)=CC1=O)Cc1ccccc1OC` [MEMOQUIN], the IC50 against Beta-secretase 1 came to 108 nM; on Acetylcholinesterase [13] it was 5930 nM.
For the molecule `C#CCN(C)C(C)Cc1cccc(OC(=O)N(C)CCCCCC)c1` (stereo not given), the IC50 in data set [6] stood at 1500 nM; in data set [7], 20000 nM.
In the case of `C#CCN[C@@H]1CCc2ccc(OC(=O)N(C)CC)cc21` [LADOSTIGIL], the results for the IC50 (in [6]; at Acetylcholinesterase [4]; in data set [7]) were 120000 nM, 52400 nM and 85000 nM, respectively.

B1: Quinone oxidoreductase (Homo sapiens), Q08257 (protein)
chain: MATGQKLMRAVRVFEFGGPEVLKLRSDIAVPIPKDHQVLIKVHACGVNPVETYIRSGTYSRKPLLPYTPGSDVAGVIEAVGDNASAFKKGDRVFTSSTISGGYAEYALAADHTVYKLPEKLDFKQGAAIGIPYFTAYRALIHSACVKAGESVLVHGASGGVGLAACQIARAYGLKILGTAGTEEGQKIVLQNGAHEVFNHREVNYIDKIKKYVGEKGIDIIIEMLANVNLSKDLSLLSHGGRVIVVGSRGTIEINPRDTMAKESSIIGVTLFSSTKEEFQQYAAALQAGMEIGWLKPVIGSQYPLEKVAEAHENIIHGSGATGKMILLL
Turning to B1, the Km in data set [14] is 12.7 µM.
